For one data set, the system named is Coturnix coturnix. The settings on record: reproduction developmental.
The subject of the next data set is Typhlodromus pyri. Briefly: LR50; higher = less toxic. The note with it: not reported; mortality.
Another data set deals with Pimephales promelas. The settings on record: chronic/long-term; duration: 30 days.
Another data set deals with Daphnia magna. The settings on record: chronic/long-term; duration: 21 days; reproduction.
Another data set relates to Bibionidae. The settings on record: chronic/long-term.
The next data set concerns Plant. The settings on record: not reported; seedling emergence.
The subject of a further data set is Canidae. The settings on record: oral, Dog Other, organ weight.
In a further data set the test system is Rattus norvegicus. The settings on record: for NOAEL: reproduction developmental, reproduction.
The test system of a further data set is Anas platyrhynchos. The note with it: for LD50: oral, mortality.
The subject of another data set is Folsomia candida. The note with it: chronic/long-term; duration: 4 weeks.
Another data set concerns Oncorhynchus mykiss. The settings on record: acute; duration: 96 hours; mortality.
In the next data set the test system is Colinus virginianus. The settings on record: acute; oral; mortality.

Data on three compounds can be found in EPA's ToxValDB 9.5 (doi:10.2903/j.efsa.2008.175r).

In brackets after ≈: the same amount, converted by molar mass. Bounds are passed on as bounds.

As for `c1nc[nH]n1` [1H-1,2,4-Triazole], in the data set with Coturnix coturnix, the NOEL is above 316 mg/kg-day.

The NOAEL is the highest tested level that showed no adverse finding. `CCCC(Cn1cncn1)c1ccc(Cl)cc1Cl` (configuration not stated) [Penconazole] came in with an LR50 with Typhlodromus pyri of 100 g/ha. Also, the NOEC in the data set on Pimephales promelas was 0.32 mg/L; in the data set on Daphnia magna, 0.06 mg/L; in the data set with Bibionidae, 25.2 mg/kg; in the data set on Bibionidae (duration: 28 days) it was 0.8 mg/L; in the data set with Folsomia candida it was 98.8 mg/kg; in the data set on Tagia sp. (chronic/long-term, duration: 56 days) it was above 0.34 mg/kg. Further, the LEL with Plant came out at 30 g/ha. The NOAEL turned out to be 3 mg/kg-day in the data set with Canidae (chronic, duration: 1 years); 3 mg/kg-day in the data set with Canidae (subchronic, duration: 90 days); 20 mg/kg-day in the data set with Rattus norvegicus; 50 mg/kg-day in the data set on Oryctolagus sp. (developmental, development). Further, the LD50 was above 1590 mg/kg-day in the data set on Anas platyrhynchos (acute, unspecified); above 1840 mg/kg-day in the data set on Anas platyrhynchos (short-term, feed); 971 mg/kg-day in the data set on Oryctolagus sp. (acute, oral, mortality). The compound further gave an NOEL with Anas platyrhynchos (reproductive) of 28.6 mg/kg-day. The LC50 was 1.13 µg/mL (≈ 3.98 µM) in the data set with Oncorhynchus mykiss and above 663 mg/kg in the data set on Tagia sp. (acute, duration: 14 days, mortality).

Regarding `NC(Cc1ncn[nH]1)C(=O)O` (configuration not stated) [1,2,4-Triazole-3-alanine], the LD50 with Colinus virginianus is above 1340 mg/kg-day; in the data set with Rattus norvegicus (acute, oral, mortality) it was above 5000 mg/kg-day. The compound further had an NOAEL in the data set with Rattus norvegicus of 100 mg/kg-day.
